Data as given in US11020395B2, “Cycloalkyl substituted triazole compounds as agonists of the APJ receptor” (AMGEN INC., priority 2016, dated 2021).
Like-named read-outs stand apart in the source and are kept apart here.

Molecular target: human APJ receptor (Homo sapiens (Human), UniProt P35414)
Experiment: [35S]GTPγS binding assay on membranes from CHO cells stably expressing human APJ receptor
Type: biochemical
Conditions: [35S]GTPγS SPA
Summary of the method: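 Agonist-stimulated [35S]GTPγS binding measured on membranes of a stable human APJ CHO line, 90 min at room temperature, with GDP, MgCl2 and NaCl levels optimized beforehand. Means of independent runs fitted by non-linear regression to give EC50.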

[1] = read-out: Activity hAPJ SPA EC50 IP

Sequence of human APJ receptor (P35414 whole entry): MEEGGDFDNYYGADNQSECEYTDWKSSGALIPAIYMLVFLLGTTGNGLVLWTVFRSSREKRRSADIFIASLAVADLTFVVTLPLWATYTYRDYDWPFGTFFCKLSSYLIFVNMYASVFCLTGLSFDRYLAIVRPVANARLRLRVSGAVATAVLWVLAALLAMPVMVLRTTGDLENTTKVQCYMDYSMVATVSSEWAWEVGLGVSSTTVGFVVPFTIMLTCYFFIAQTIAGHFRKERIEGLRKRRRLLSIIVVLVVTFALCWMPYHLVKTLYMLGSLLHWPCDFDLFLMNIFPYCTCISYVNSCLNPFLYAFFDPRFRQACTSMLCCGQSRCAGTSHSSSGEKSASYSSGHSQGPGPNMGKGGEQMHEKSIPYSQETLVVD

Molecule	EC50 [1] [nM]	EC50 (Activity hAPJ SPA EC50 IP) [nM]
COc1ncnc(OC)c1-n1c(NS(=O)(=O)[C@@H](C)[C@H](OC)c2ncc(Cl)cn2)nnc1[C@H]1C[C@@H](F)C1 (single isomer, unassigned) [Example 162.0, (1R,2S)-1-(5-chloropyrimidin-2-yl)-N-(4-(4,6-dimethoxypyrimidin-5-yl)-5-((1s,3R)-3-fluorocyclobutyl)-4H-1,2,4-triazol-3-yl)-1-methoxypropane-2-sulfonamide or (1R,2S)-1-(5-chloropyrimidin-2-yl)-N-(4-(4,6-dimethoxypyrimidin-5-yl)-5-((1r,3S)-3-fluorocyclobutyl)-4H-1,2,4-triazol-3-yl)-1-methoxypropane-2-sulfonamide]	14	–
CO[C@H](c1ncc(Cl)cn1)[C@H](C)S(=O)(=O)Nc1nnc([C@H]2C[C@H](CO)C2)n1C1CC1 (single isomer, unassigned) [Example 134.0, (1R,2S)-1-(5-chloro-2-pyrimidinyl)-N-(4-cyclopropyl-5-(trans-3-(hydroxymethyl)cyclobutyl)-4H-1,2,4-triazol-3-yl)-1-methoxy-2-propanesulfonamide or (1R,2S)-1-(5-chloro-2-pyrimidinyl)-N-(4-cyclopropyl-5-(cis-3-(hydroxymethyl)cyclobutyl)-4H-1,2,4-triazol-3-yl)-1-methoxy-2-propanesulfonamide]	1330	–
COc1cccc(OC)c1-n1c(NS(=O)(=O)[C@@H](C)[C@H](OC)c2ncc(Cl)cn2)nnc1[C@H]1C[C@@H](CO)C1 (single isomer, unassigned) [Example 124.0, (1R,2S)-1-(5-chloro-2-pyrimidinyl)-N-(4-(2,6-dimethoxyphenyl)-5-(cis-3-(hydroxymethyl)cyclobutyl)-4H-1,2,4-triazol-3-yl)-1-methoxy-2-propanesulfonamide or (1R,2S)-1-(5-chloro-2-pyrimidinyl)-N-(4-(2,6-dimethoxyphenyl)-5-(trans-3-(hydroxymethyl)cyclobutyl)-4H-1,2,4-triazol-3-yl)-1-methoxy-2-propanesulfonamide]	49	–
COc1cccc(OC)c1-n1c(NS(=O)(=O)[C@@H](C)[C@@H](OC(C)C)c2ncc(C)cn2)nnc1[C@@H]1CCC[C@@H]1OC (single isomer, unassigned) [Example 233.0]	94	–
COCC(COC)n1c(NS(=O)(=O)[C@@H](C)[C@H](OC)c2ncc(Cl)cn2)nnc1C1CCC1 [Example 95.0, (1R,2S)-1-(5-chloropyrimidin-2-yl)-N-(5-cyclobutyl-4-(1,3-dimethoxypropan-2-yl)-4H-1,2,4-triazol-3-yl)-1-methoxypropane-2-sulfonamide]	43	–
(2S,3R)-3-(5-chloropyrimidin-2-yl)-N-(4-(2,6-dimethoxyphenyl)-5-((S)-spiro[2.2]pentan-1-yl)-4H-1,2,4-triazol-3-yl)butane-2-sulfonamide or (2S,3R)-3-(5-chloropyrimidin-2-yl)-N-(4-(2,6-dimethoxyphenyl)-5-((R)-spiro[2.2]pentan-1-yl)-4H-1,2,4-triazol-3-yl)butane-2-sulfonamide [Example 218.0]	1.1	–
COc1ncnc(OC)c1-n1c(NS(=O)(=O)[C@@H](C)[C@H](OC)c2ncc(Cl)cn2)nnc1[C@H]1CC[C@@H](OC)CC1 (single isomer, unassigned) [Example 174.0, (1R,2S)-1-(5-chloropyrimidin-2-yl)-N-(4-(4,6-dimethoxypyrimidin-5-yl)-5-((1s,4R)-4-methoxycyclohexyl)-4H-1,2,4-triazol-3-yl)-1-methoxypropane-2-sulfonamide or (1R,2S)-1-(5-chloropyrimidin-2-yl)-N-(4-(4,6-dimethoxypyrimidin-5-yl)-5-((1r,4S)-4-methoxycyclohexyl)-4H-1,2,4-triazol-3-yl)-1-methoxypropane-2-sulfonamide]	1200	–
COc1cccc(OC)c1-n1c(NS(=O)(=O)[C@@H](C)[C@H](OC)c2ncc(C)cn2)nnc1C1CC1 [Example 16.0, (1R,2S)—N-(5-Cyclopropyl-4-(2,6-dimethoxyphenyl)-4H-1,2,4-triazol-3-yl)-1-methoxy-1-(5-methyl-2-pyrimidinyl)-2-propanesulfonamide]	–	22
